Drawing on patent publication US9187472B2 (AbbVie Inc., priority 2012, dated 2015), this text covers IC50 for 26 compounds.

The term IC50 denotes the concentration needed to halve the response being measured.

For experiment [1], the system named is PC3 cells. The experiment is described as follows: NAMPT Cell Proliferation Assay. The experiment is classed as cell-based. The settings on record: Homo sapiens, PC-3, 120 h, 5 days incubation, cell viability by Cell Titer Glo. In outline: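 Following overnight attachment in RPMI with 10% heat-inactivated FBS, PC3 cells at 500 per well receive compounds spanning 10 μM down to 1×10^−5 μM. Growth is assessed by luminescent viability read after 5 days.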
On the technique in general: In ATP-based viability assays light output follows the ATP content of the culture.

In experiment [2] the target is NAMPT (human, recombinant, C-terminally His-tagged) (Homo sapiens, UniProt P43490). The experiment is described as follows: Time-Resolved Fluorescence Resonance Energy Transfer (TR-FRET) Binding Assay of NAMPT. The note with it: without substrates; 6.8 nM NAMPT, 200 nM probe, 3 hours equilibration. In outline: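 Competitive binding against an Oregon Green 488 tracer (200 nM), 6.8 nM His-tagged enzyme, 1 nM Tb antibody, 2% DMSO, 3 h at RT. IC50 derived from TR-FRET ratios.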
A general note: TR-FRET usually uses a lanthanide donor and a delayed reading to cut background.

The target of experiment [3] is NAMPT (Homo sapiens, UniProt P43490). The experiment can be described thus: TR-FRET Binding Assay of NAMPT with PRPP. The settings on record: with 200 μM PRPP and 2.5 mM ATP; 2 nM NAMPT, 2 nM probe, 16 hours equilibration. In a few lines: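 Read-out is TR-FRET after a 16 h equilibration allowing possible compound modification by the enzyme. Final mix: 2 nM NAMPT, 2 nM probe, 1 nM Tb-anti-His antibody, 200 μM PRPP, 2.5 mM ATP, 2% DMSO.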
NAMPT, sequence (P43490 whole entry): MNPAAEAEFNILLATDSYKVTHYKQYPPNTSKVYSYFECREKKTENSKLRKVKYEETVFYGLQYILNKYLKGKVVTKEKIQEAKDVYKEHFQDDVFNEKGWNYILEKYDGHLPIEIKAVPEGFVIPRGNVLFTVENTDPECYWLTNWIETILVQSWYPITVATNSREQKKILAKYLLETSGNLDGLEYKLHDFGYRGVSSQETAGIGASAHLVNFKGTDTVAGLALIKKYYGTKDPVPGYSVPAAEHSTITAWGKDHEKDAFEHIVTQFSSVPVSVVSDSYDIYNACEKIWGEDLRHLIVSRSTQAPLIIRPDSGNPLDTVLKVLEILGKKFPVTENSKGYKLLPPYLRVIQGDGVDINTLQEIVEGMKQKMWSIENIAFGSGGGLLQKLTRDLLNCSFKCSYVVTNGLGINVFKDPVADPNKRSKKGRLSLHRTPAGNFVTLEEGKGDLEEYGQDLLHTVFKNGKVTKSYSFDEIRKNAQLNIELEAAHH

NAMPT (human, recombinant, C-terminally His-tagged), sequence (P43490 whole entry): as above

For the compound `CC[C@H](C)C(=O)N1CC[C@H](Oc2ccc(C(=O)NCc3ccn4ccnc4c3)cc2)C1` [Example 321, N-(imidazo[1,2-a]pyridin-7-ylmethyl)-4-({(3S)-1-[(2S)-2-methylbutanoyl]pyrrolidin-3-yl}oxy)benzamide], the IC50 in experiment [1] came out at 1130 nM; in experiment [2] it was 3160 nM; in experiment [3], 0.792 nM.
In the same order, the values of `N#CC1(C(=O)N2CCC(c3ccc(C(=O)NCc4ccn5ccnc5c4)s3)C2)CC1` (stereo not drawn) [Example 781, 5-{1-[(1-cyanocyclopropyl)carbonyl]pyrrolidin-3-yl}-N-(imidazo[1,2-a]pyridin-7-ylmethyl)thiophene-2-carboxamide] are 7.27 nM, 87.5 nM and 0.839 nM.
Take `Cc1cccc(C(=O)N2CCC(c3ccc(C(=O)NCc4ccn5ccnc5c4)cc3)C2)c1` (stereo not drawn) [Example 616, N-(imidazo[1,2-a]pyridin-7-ylmethyl)-4-[1-(3-methylbenzoyl)pyrrolidin-3-yl]benzamide]: the IC50 in experiment [1] is 32.6 nM; in experiment [2], 174 nM; in experiment [3], 0.49 nM.
On the same counts, the results for `CC(C)C(=O)n1cc(-c2ccc(C(=O)NCc3ccc4nccn4c3)s2)cn1` [Example 175, N-(imidazo[1,2-a]pyridin-6-ylmethyl)-5-[1-(2-methylpropanoyl)-1H-pyrazol-4-yl]thiophene-2-carboxamide] are 313 nM, 697 nM and 0.9 nM.
On the same counts, the results for `O=C(Nc1ccc(NC(=O)C2COCCO2)cc1)Nc1ccc2nccn2c1` (stereo not drawn) [Example 50] are 6140 nM, 1640 nM and 0.817 nM.
Consider `O=C(NCc1ccn2ccnc2c1)c1ccc(C2CCN(C(=O)C3CC3)CC2)cc1` [Example 531, 4-[1-(cyclopropylcarbonyl)piperidin-4-yl]-N-(imidazo[1,2-a]pyridin-7-ylmethyl)benzamide], for which the IC50 in experiment [1] amounted to 52.9 nM; in experiment [2] it was 333 nM; in experiment [3], 0.253 nM.
In the same order, the values of `COCCNC(=O)N(CC1CCOC1)c1ncc(C(=O)NCc2ccc3nccn3c2)s1` (stereo not drawn) [Example 141, N-(imidazo[1,2-a]pyridin-6-ylmethyl)-2-{[(2-methoxyethyl)carbamoyl](tetrahydrofuran-3-ylmethyl)amino}-1,3-thiazole-5-carboxamide] are 77.8 nM, 2110 nM and 0.757 nM.
Consider `O=C(NCc1ccc2nccn2c1)c1ccc(C2=CCN(C(=O)C3CCOC3)CC2)cc1` (stereo not drawn) [Example 100, N-(imidazo[1,2-a]pyridin-6-ylmethyl)-4-[1-(tetrahydrofuran-3-ylcarbonyl)-1,2,3,6-tetrahydropyridin-4-yl]benzamide], for which the values for the IC50 in experiment [1], in experiment [2] and in experiment [3] were 16.2 nM, 102 nM and 0.169 nM, respectively.
In the same order, the values of `O=C(NCc1ccc2nccn2c1)c1ccc(OC2CCN(C(=O)C3COCCO3)CC2)cc1` (stereo not drawn) [Example 163, 4-{[1-(1,4-dioxan-2-ylcarbonyl)piperidin-4-yl]oxy}-N-(imidazo[1,2-a]pyridin-6-ylmethyl)benzamide] are 96.4 nM, 2100 nM and 6.29 nM.
In the same order, the values of `CC1(Cn2cc(-c3ccc(C(=O)NCc4ccc5nccn5c4)s3)cn2)COC1` [Example 177, N-(imidazo[1,2-a]pyridin-6-ylmethyl)-5-{1-[(3-methyloxetan-3-yl)methyl]-1H-pyrazol-4-yl}thiophene-2-carboxamide] are 1.69 nM, 20.1 nM and 0.169 nM.
As for `O=C(NCc1ccn2ccnc2c1)c1ccc(OC2CCN(C(=O)[C@@H]3CCCO3)CC2)cc1` [Example 419, N-(imidazo[1,2-a]pyridin-7-ylmethyl)-4-({1-[(2S)-tetrahydrofuran-2-ylcarbonyl]piperidin-4-yl}oxy)benzamide], the results for the IC50 in experiment [1], in experiment [2] and in experiment [3] were 365 nM, 2430 nM and 0.197 nM, respectively.
On the same counts, the results for `O=C(NCc1ccn2ccnc2c1)Nc1ccc(Oc2ccccc2)cc1` [Example 496, 1-(imidazo[1,2-a]pyridin-7-ylmethyl)-3-(4-phenoxyphenyl)urea] are 7140 nM, 199 nM and 1.14 nM.
On the same counts, the results for `O=C(NCc1ccn2ccnc2c1)c1ccc(-c2cnn(CC3CCCCO3)c2)o1` (stereo not drawn) [Example 477, N-(imidazo[1,2-a]pyridin-7-ylmethyl)-5-[1-(tetrahydro-2H-pyran-2-ylmethyl)-1H-pyrazol-4-yl]furan-2-carboxamide] are 3.21 nM, 72.9 nM and 0.235 nM.
In the same order, the values of `CC(C)Cn1nccc1-c1ccc(C(=O)NCc2ccn3ccnc3c2)o1` [Example 818, N-(imidazo[1,2-a]pyridin-7-ylmethyl)-5-[1-(2-methylpropyl)-1H-pyrazol-5-yl]furan-2-carboxamide] are 716 nM, 1520 nM and 0.644 nM.
Turning to `O=C(NCc1ccn2ccnc2c1)c1ccc(C2CCN(S(=O)(=O)c3ccccc3)CC2)cc1` [Example 682, N-(imidazo[1,2-a]pyridin-7-ylmethyl)-4-[1-(phenylsulfonyl)piperidin-4-yl]benzamide], the results for the IC50 in experiment [1], in experiment [2] and in experiment [3] were 771 nM, 607 nM and 1.58 nM, respectively.
On the same counts, the results for `O=C(NCc1ccn2ccnc2c1)c1ccc(C2CCN(C(=O)c3cccc(OC(F)(F)F)c3)C2)cc1` (stereo not drawn) [Example 618, N-(imidazo[1,2-a]pyridin-7-ylmethyl)-4-{1-[3-(trifluoromethoxy)benzoyl]pyrrolidin-3-yl}benzamide] are 125 nM, 500 nM and 0.751 nM.
For `CC(C)OCC(=O)N1CCC(CCCCNC(=O)Nc2ccc3nccn3c2)CC1` [Example 62, 1-imidazo[1,2-a]pyridin-6-yl-3-(4-{1-[(propan-2-yloxy)acetyl]piperidin-4-yl}butyl)urea], the IC50 in experiment [1] stood at 16.5 nM; in experiment [2] it was 250 nM; in experiment [3], 0.456 nM.
In the same order, the values of `CC(C)(C)OC(=O)Nc1ccc(C(=O)NCc2ccn3ccnc3c2)cc1F` [Example 292, tert-butyl {2-fluoro-4-[(imidazo[1,2-a]pyridin-7-ylmethyl)carbamoyl]phenyl}carbamate] are 7220 nM, 1540 nM and 1.15 nM.
On the same counts, the results for `O=C(NCc1ccn2ccnc2c1)Nc1ccc(OC2CN(C(=O)CC3CCOCC3)C2)cc1` [Example 435, 1-(imidazo[1,2-a]pyridin-7-ylmethyl)-3-(4-{[1-(tetrahydro-2H-pyran-4-ylacetyl)azetidin-3-yl]oxy}phenyl)urea] are 20.4 nM, 163 nM and 0.191 nM.
For `O=C(Nc1ccc(C2CCN(C(=O)C3CCCO3)CC2)cc1)Nc1ccc2nccn2c1` (stereo not drawn) [Example 113, 1-imidazo[1,2-a]pyridin-6-yl-3-{4-[1-(tetrahydrofuran-2-ylcarbonyl)piperidin-4-yl]phenyl}urea], the IC50 was determined as 93.3 nM in experiment [1], 356 nM in experiment [2] and 0.169 nM in experiment [3].
On the same counts, the results for `CCCNC(=O)c1ccc(NC(=O)Nc2ccc3nccn3c2)cc1` [Example 17, 4-[(imidazo[1,2-a]pyridin-6-ylcarbamoyl)amino]-N-propylbenzamide] are 4960 nM, 2960 nM and 0.401 nM.
On the same counts, the results for `O=C(Nc1ccc(C(=O)NCc2ccccc2)cc1)Nc1ccc2nccn2c1` [Example 7, N-benzyl-4-[(imidazo[1,2-a]pyridin-6-ylcarbamoyl)amino]benzamide] are 527 nM, 183 nM and 0.516 nM.
As for `O=C(Nc1ccc(C2CCN(C(=O)CC3CCCO3)CC2)cc1)Nc1ccc2nccn2c1` (stereo not drawn) [Example 111, 1-imidazo[1,2-a]pyridin-6-yl-3-{4-[1-(tetrahydrofuran-2-ylacetyl)piperidin-4-yl]phenyl}urea], the IC50 in experiment [1] was 75.5 nM; in experiment [2] it was 263 nM; in experiment [3] it was 0.209 nM.
Turning to `Cn1cc(CCC(=O)N(CC2CCCO2)c2ncc(C(=O)NCc3ccc4nccn4c3)s2)cn1` (stereo not drawn) [Example 130, N-(imidazo[1,2-a]pyridin-6-ylmethyl)-2-{[3-(1-methyl-1H-pyrazol-4-yl)propanoyl](tetrahydrofuran-2-ylmethyl)amino}-1,3-thiazole-5-carboxamide], the IC50 stood at 6.55 nM in experiment [1], 53.2 nM in experiment [2] and 0.981 nM in experiment [3].
On the same counts, the results for `CC(C)CC(=O)N1CCC(c2ccc(C(=O)NCc3ccn4ccnc4c3)s2)C1` (stereo not drawn) [Example 467, N-(imidazo[1,2-a]pyridin-7-ylmethyl)-5-[1-(3-methylbutanoyl)pyrrolidin-3-yl]thiophene-2-carboxamide] are 4.02 nM, 91.1 nM and 0.278 nM.
On the same counts, the results for `O=C(NCc1ccn2ccnc2c1)c1cnc(C2CCN(c3ccccc3)CC2)s1` [Example 688, N-(imidazo[1,2-a]pyridin-7-ylmethyl)-2-(1-phenylpiperidin-4-yl)-1,3-thiazole-5-carboxamide] are 5480 nM, 1110 nM and 2.66 nM.
